This note sets out measurements from patent US10329303B2, “Heterocyclic inhibitors of monocarboxylate transporter” (THE SCRIPPS RESEARCH INSTITUTE, priority 2015, dated 2019).

Where only a bound is given, the exact number is not on record here.

In the experiment the test system is Raji (Burkitt's) lymphoma cells. In words: MTT assay for 4-day viability of Raji (Burkitt's) lymphoma cells. It counts as cell-based. As to conditions: Homo sapiens, 96 h, Raji cells (highly express MCT1), read-out: approximate potency (EC50). From the text:
Specific Examples 1-52 of compounds of the invention, with estimated EC50 values determined using an MTT assay for 4-day viability of Raji (Burkitt's) lymphoma cells, a cell line known to highly express MCT1 and to be sensitive to small molecule MCT inhibitors,^4 are shown in Table 2. Assay protocols follow those described in the literature.^4 Other assays that are not described here but that are standard in the field, such as an assay for competitive inhibition of transport of radiolabeled lactic acid, an MCT substrate, may also be useful in establishing mechanism of action of these compounds.
For orientation: Tetrazolium dyes change colour on reduction, which living cells bring about.
Regarding `Cc1n[nH]c(C)c1Cc1sc2c(c1-c1cccc(CO)c1F)c(=O)n(C)c(=O)n2CC(C)C` [Example 1, 6-((3,5-dimethyl-1H-pyrazol-4-yl)methyl)-5-(2-fluoro-3-(hydroxymethyl)phenyl)-1-isobutyl-3-methylthieno[2,3-d]pyrimidine-2,4(1H,3H)-dione], the EC50 was no more than 0.02 µM.

In the case of `Cc1cc(CO)c(F)c(-c2c(Cc3c(C)n[nH]c3C)sc3c2c(=O)n(C)c(=O)n3CC(C)C)c1` [Example 2, 6-((3,5-dimethyl-1H-pyrazol-4-yl)methyl)-5-(2-fluoro-3-(hydroxymethyl)-5-methylphenyl)-1-isobutyl-3-methylthieno[2,3-d]pyrimidine-2,4(1H,3H)-dione], the half-maximal effective concentration (EC50) was 0.1 µM. Under `Cc1n[nH]c(C)c1Cc1sc2c(c1-c1c(F)cc(F)c(CO)c1F)c(=O)n(C)c(=O)n2CC(C)C` [Example 3, 6-((3,5-dimethyl-1H-pyrazol-4-yl)methyl)-1-isobutyl-3-methyl-5-(2,4,6-trifluoro-3-(hydroxymethyl)phenyl)thieno[2,3-d]pyrimidine-2,4(1H,3H)-dione] stands 1 to 10 µM; under `Cc1n[nH]c(C)c1Cc1sc2c(c1-c1cnc(F)c(CO)c1)c(=O)n(C)c(=O)n2CC(C)C` [Example 4, 6-((3,5-dimethyl-1H-pyrazol-4-yl)methyl)-5-(6-fluoro-5-(hydroxymethyl)pyridin-3-yl)-1-isobutyl-3-methylthieno[2,3-d]pyrimidine-2,4(1H,3H)-dione], 0.2 µM. Turning to `Cc1n[nH]c(C)c1Cc1sc2c(c1-c1cc(F)c(F)c(CO)c1)c(=O)n(C)c(=O)n2CC(C)C` [Example 5, 5-(3,4-difluoro-5-(hydroxymethyl)phenyl)-6-((3,5-dimethyl-1H-pyrazol-4-yl)methyl)-1-isobutyl-3-methylthieno[2,3-d]pyrimidine-2,4(1H,3H)-dione], the EC50 is 0.16 µM. Under `Cc1n[nH]c(C)c1Cc1sc2c(c1-c1cc(CO)c(F)cc1F)c(=O)n(C)c(=O)n2CC(C)C` [Example 6, 5-(2,4-difluoro-5-(hydroxymethyl)phenyl)-6-((3,5-dimethyl-1H-pyrazol-4-yl)methyl)-1-isobutyl-3-methylthieno[2,3-d]pyrimidine-2,4(1H,3H)-dione] stands no more than 0.02 µM; under `Cc1n[nH]c(C)c1Cc1sc2c(c1-c1ccc(F)c(CO)c1F)c(=O)n(C)c(=O)n2CC(C)C` [Example 7, 5-(2,4-difluoro-3-(hydroxymethyl)phenyl)-6-((3,5-dimethyl-1H-pyrazol-4-yl)methyl)-1-isobutyl-3-methylthieno[2,3-d]pyrimidine-2,4(1H,3H)-dione], no more than 0.02 µM; under `Cc1n[nH]c(C)c1Cc1sc2c(c1-c1cncc(C(O)C(F)(F)F)c1)c(=O)n(C)c(=O)n2CC(C)C` (stereo not drawn) [Example 8, 6-((3,5-dimethyl-1H-pyrazol-4-yl)methyl)-1-isobutyl-3-methyl-5-(5-(2,2,2-trifluoro-1-hydroxyethyl)pyridin-3-yl)thieno[2,3-d]pyrimidine-2,4(1H,3H)-dione], 0.034 µM. Turning to `Cc1n[nH]c(C)c1Cc1sc2c(c1-c1ccnc(CO)c1)c(=O)n(C)c(=O)n2CC(C)C` [Example 10, 6-((3,5-dimethyl-1H-pyrazol-4-yl)methyl)-5-(2-(hydroxymethyl)pyridin-4-yl)-1-isobutyl-3-methylthieno[2,3-d]pyrimidine-2,4(1H,3H)-dione], the EC50 amounted to 0.09 µM. As for `Cc1n[nH]c(C)c1Cc1sc2c(c1-c1cc(F)cc(CO)c1)c(=O)n(C)c(=O)n2CC(C)C` [Example 11, 6-((3,5-dimethyl-1H-pyrazol-4-yl)methyl)-5-(3-fluoro-5-(hydroxymethyl)phenyl)-1-isobutyl-3-methylthieno[2,3-d]pyrimidine-2,4(1H,3H)-dione], the EC50 turned out to be 0.025 µM. For `Cc1n[nH]c(C)c1Cc1sc2c(c1-c1cncc(CO)c1)c(=O)n(C)c(=O)n2CC(C)C` [Example 12, 6-((3,5-dimethyl-1H-pyrazol-4-yl)methyl)-5-(5-(hydroxymethyl)pyridin-3-yl)-1-isobutyl-3-methylthieno[2,3-d]pyrimidine-2,4(1H,3H)-dione], the EC50 was found to be 0.075 µM. Under `Cc1n[nH]c(C)c1Cc1sc2c(c1-c1cccc(C(C)O)c1)c(=O)n(C)c(=O)n2CC(C)C` (stereo not drawn) [Example 13, 6-((3,5-dimethyl-1H-pyrazol-4-yl)methyl)-5-(3-(1-hydroxyethyl)phenyl)-1-isobutyl-3-methylthieno[2,3-d]pyrimidine-2,4(1H,3H)-dione] stands 0.05 µM; under `Cc1n[nH]c(C)c1Cc1sc2c(c1-c1cccc(C(O)C(F)(F)F)c1)c(=O)n(C)c(=O)n2CC(C)C` (stereo not drawn) [Example 14, 6-((3,5-dimethyl-1H-pyrazol-4-yl)methyl)-1-isobutyl-3-methyl-5-(3-(2,2,2-trifluoro-1-hydroxyethyl)phenyl)thieno[2,3-d]pyrimidine-2,4(1H,3H)-dione], less than 0.02 µM. For `Cc1n[nH]c(C)c1Cc1sc2c(c1-c1cccc(CO)c1)c(=O)n(C)c(=O)n2CC(C)C` [Example 15, 6-((3,5-dimethyl-1H-pyrazol-4-yl)methyl)-5-(3-(hydroxymethyl)phenyl)-1-isobutyl-3-methylthieno[2,3-d]pyrimidine-2,4(1H,3H)-dione] the value was less than 0.02 µM; for `Cc1n[nH]c(C)c1Cc1sc2c(c1-c1ccc(F)c(CO)c1)c(=O)n(C1CC1)c(=O)n2CC(C)C` [Example 16, 3-cyclopropyl-6-((3,5-dimethyl-1H-pyrazol-4-yl)methyl)-5-(4-fluoro-3-(hydroxymethyl)phenyl)-1-isobutylthieno[2,3-d]pyrimidine-2,4(1H,3H)-dione], 0.22 µM; for `Cc1cc(CO)c(F)c(-c2c(Cc3c(C)n[nH]c3C)sc3c2c(=O)n(C2CC2)c(=O)n3CC(C)C)c1` [Example 17, 3-cyclopropyl-6-((3,5-dimethyl-1H-pyrazol-4-yl)methyl)-5-(2-fluoro-3-(hydroxymethyl)-5-methylphenyl)-1-isobutylthieno[2,3-d]pyrimidine-2,4(1H,3H)-dione], 0.1 µM. For `Cc1n[nH]c(C)c1Cc1sc2c(c1-c1cc(F)c(F)c(CO)c1)c(=O)n(C1CC1)c(=O)n2CC(C)C` [Example 18, 3-cyclopropyl-5-(3,4-difluoro-5-(hydroxymethyl)phenyl)-6-((3,5-dimethyl-1H-pyrazol-4-yl)methyl)-1-isobutylthieno[2,3-d]pyrimidine-2,4(1H,3H)-dione] the value was 0.9 µM; for `Cc1n[nH]c(C)c1Cc1sc2c(c1-c1cc(CO)c(F)cc1F)c(=O)n(C1CC1)c(=O)n2CC(C)C` [Example 19, 3-cyclopropyl-5-(2,4-difluoro-5-(hydroxymethyl)phenyl)-6-((3,5-dimethyl-1H-pyrazol-4-yl)methyl)-1-isobutylthieno[2,3-d]pyrimidine-2,4(1H,3H)-dione], 0.07 µM. Take `Cc1n[nH]c(C)c1Cc1sc2c(c1-c1cccc(CO)c1F)c(=O)n(C1CC1)c(=O)n2CC(C)C` [Example 20, 3-cyclopropyl-6-((3,5-dimethyl-1H-pyrazol-4-yl)methyl)-5-(2-fluoro-3-(hydroxymethyl)phenyl)-1-isobutylthieno[2,3-d]pyrimidine-2,4(1H,3H)-dione]: the EC50 is no more than 0.02 µM. For `Cc1n[nH]c(C)c1Cc1sc2c(c1-c1cc(CO)ccc1F)c(=O)n(C1CC1)c(=O)n2CC(C)C` [Example 22, 3-cyclopropyl-6-((3,5-dimethyl-1H-pyrazol-4-yl)methyl)-5-(2-fluoro-5-(hydroxymethyl)phenyl)-1-isobutylthieno[2,3-d]pyrimidine-2,4(1H,3H)-dione] the value was no more than 0.02 µM; for `Cc1n[nH]c(C)c1Cc1sc2c(c1-c1ccnc(CO)c1)c(=O)n(C1CC1)c(=O)n2CC(C)C` [Example 23, 3-cyclopropyl-6-((3,5-dimethyl-1H-pyrazol-4-yl)methyl)-5-(2-(hydroxymethyl)pyridin-4-yl)-1-isobutylthieno[2,3-d]pyrimidine-2,4(1H,3H)-dione], no more than 0.02 µM.

Regarding `Cc1n[nH]c(C)c1Cc1sc2c(c1-c1cccc(CO)c1)c(=O)n(C1CC1)c(=O)n2CC(C)C` [Example 24, 3-cyclopropyl-6-((3,5-dimethyl-1H-pyrazol-4-yl)methyl)-5-(3-(hydroxymethyl)phenyl)-1-isobutylthieno[2,3-d]pyrimidine-2,4(1H,3H)-dione], the EC50 turned out to be 1 µM. For `CC(C)Cc1nn(C)c(=O)c2c(-c3ncc(CO)s3)n(Cc3cccc4ccccc34)cc12` [Example 25, 7-(5-(hydroxymethyl)thiazol-2-yl)-4-isobutyl-2-methyl-6-(naphthalen-1-ylmethyl)-2,6-dihydro-1H-pyrrolo[3,4-d]pyridazin-1-one] the value was 0.3 µM. Regarding `CC(C)Cc1nn(C)c(=O)c2c(-c3csc(CO)n3)n(Cc3cccc4ccccc34)cc12` [Example 26, 7-(2-(hydroxymethyl)thiazol-4-yl)-4-isobutyl-2-methyl-6-(naphthalen-1-ylmethyl)-2,6-dihydro-1H-pyrrolo[3,4-d]pyridazin-1-one], the EC50 amounted to 0.09 µM. Under `CC(C)Cc1nn(C)c(=O)c2c(-c3ccc(F)c(CO)c3F)n(Cc3cccc4ccccc34)cc12` [Example 27, 7-(2,4-difluoro-3-(hydroxymethyl)phenyl)-4-isobutyl-2-methyl-6-(naphthalen-1-ylmethyl)-2,6-dihydro-1H-pyrrolo[3,4-d]pyridazin-1-one] stands 0.08 µM; under `CC(C)Cc1nn(C)c(=O)c2c(-c3cc(CO)ccc3F)n(Cc3cccc4ccccc34)cc12` [Example 28, 7-(2-fluoro-5-(hydroxymethyl)phenyl)-4-isobutyl-2-methyl-6-(naphthalen-1-ylmethyl)-2,6-dihydro-1H-pyrrolo[3,4-d]pyridazin-1-one], 0.04 µM; under `CC(C)Cc1nn(C)c(=O)c2c(-c3cccc(CO)c3F)n(Cc3cccc4ccccc34)cc12` [Example 29, 7-(2-fluoro-3-(hydroxymethyl)phenyl)-4-isobutyl-2-methyl-6-(naphthalen-1-ylmethyl)-2,6-dihydro-1H-pyrrolo[3,4-d]pyridazin-1-one], 0.08 µM.

The EC50 is the midpoint of the concentration-response curve.
